{"source": "paper PMC4461516", "about": "(Bioorganic & medicinal chemistry, 2015)", "key": {"[1]": {"system": "maximal electroshock seizure", "conditions": "rat, po, cited from earlier work"}, "[2]": {"system": "maximal electroshock seizure", "conditions": "rat, ip; 95% CI in parentheses; cited from earlier work"}, "[3]": {"system": "maximal electroshock seizure", "conditions": "mice, ip; 95% CI in parentheses; cited from earlier work"}, "[4]": {"biological_target": "T1, Na+ currents in CAD cells (mostly Nav1.7) (Mus musculus, UniProt Q62205)", "T1 sequence (Q62205 whole entry)": "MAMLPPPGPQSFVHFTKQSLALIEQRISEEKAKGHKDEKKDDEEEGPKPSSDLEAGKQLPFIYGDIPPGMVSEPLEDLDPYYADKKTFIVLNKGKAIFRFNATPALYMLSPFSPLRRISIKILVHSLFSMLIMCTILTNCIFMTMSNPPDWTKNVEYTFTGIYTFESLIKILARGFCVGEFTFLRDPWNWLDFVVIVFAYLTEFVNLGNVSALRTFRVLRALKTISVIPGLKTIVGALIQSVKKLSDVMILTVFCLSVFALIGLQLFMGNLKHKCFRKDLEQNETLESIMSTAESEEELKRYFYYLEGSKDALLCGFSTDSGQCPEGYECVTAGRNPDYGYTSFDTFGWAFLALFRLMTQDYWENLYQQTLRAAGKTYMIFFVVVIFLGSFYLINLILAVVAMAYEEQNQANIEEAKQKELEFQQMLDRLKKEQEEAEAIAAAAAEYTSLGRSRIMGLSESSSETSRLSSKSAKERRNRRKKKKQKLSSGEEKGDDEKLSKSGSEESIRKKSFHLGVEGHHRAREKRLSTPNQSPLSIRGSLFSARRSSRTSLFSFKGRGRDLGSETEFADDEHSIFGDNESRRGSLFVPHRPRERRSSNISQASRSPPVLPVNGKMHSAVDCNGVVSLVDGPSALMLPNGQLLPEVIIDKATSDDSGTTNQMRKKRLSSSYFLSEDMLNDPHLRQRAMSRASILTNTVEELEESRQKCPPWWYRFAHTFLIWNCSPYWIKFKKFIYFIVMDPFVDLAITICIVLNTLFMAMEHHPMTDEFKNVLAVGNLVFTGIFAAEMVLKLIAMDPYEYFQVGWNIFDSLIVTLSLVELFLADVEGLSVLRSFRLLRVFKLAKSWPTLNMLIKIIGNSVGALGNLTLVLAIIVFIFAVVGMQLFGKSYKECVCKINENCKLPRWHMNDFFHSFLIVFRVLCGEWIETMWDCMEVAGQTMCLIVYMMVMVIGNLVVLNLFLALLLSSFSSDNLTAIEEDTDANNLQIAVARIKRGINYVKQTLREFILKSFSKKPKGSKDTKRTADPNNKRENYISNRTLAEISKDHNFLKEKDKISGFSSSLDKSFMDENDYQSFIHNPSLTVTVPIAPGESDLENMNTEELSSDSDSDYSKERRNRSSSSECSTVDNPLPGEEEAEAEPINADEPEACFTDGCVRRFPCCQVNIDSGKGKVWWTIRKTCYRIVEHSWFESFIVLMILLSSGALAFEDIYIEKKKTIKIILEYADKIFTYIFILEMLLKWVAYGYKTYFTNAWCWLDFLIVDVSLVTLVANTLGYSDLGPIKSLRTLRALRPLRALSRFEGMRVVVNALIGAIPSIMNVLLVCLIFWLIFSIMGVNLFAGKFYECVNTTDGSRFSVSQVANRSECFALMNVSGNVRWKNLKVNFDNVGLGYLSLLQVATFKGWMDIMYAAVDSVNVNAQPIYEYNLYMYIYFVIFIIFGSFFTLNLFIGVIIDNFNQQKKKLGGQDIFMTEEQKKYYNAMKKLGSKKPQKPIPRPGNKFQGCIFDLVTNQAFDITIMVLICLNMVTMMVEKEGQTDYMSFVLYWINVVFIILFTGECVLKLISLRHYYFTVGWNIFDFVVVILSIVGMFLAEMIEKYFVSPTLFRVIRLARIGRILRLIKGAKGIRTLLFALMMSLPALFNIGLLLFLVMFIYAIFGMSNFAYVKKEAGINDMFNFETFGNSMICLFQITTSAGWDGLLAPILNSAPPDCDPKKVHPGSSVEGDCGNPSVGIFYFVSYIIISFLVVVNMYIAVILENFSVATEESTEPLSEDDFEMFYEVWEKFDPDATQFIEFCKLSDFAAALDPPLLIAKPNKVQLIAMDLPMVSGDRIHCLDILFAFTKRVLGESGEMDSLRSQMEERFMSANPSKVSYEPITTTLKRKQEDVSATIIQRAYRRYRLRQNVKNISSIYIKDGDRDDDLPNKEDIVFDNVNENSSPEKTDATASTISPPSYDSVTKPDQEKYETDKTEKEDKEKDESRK", "conditions": "read-out: Slow inactivation IC50, at −50 mV; cited from earlier work"}, "[5]": {"biological_target": "T1, Na+ currents in CAD cells (mostly Nav1.7)", "assay": "Whole-cell patch-clamp of Na+ currents in CAD cells", "format": "cell-based", "conditions": "any concentration tested, control V1/2 −19.5 ± 2.8 mV"}, "CYP1A2": {"biological_target": "T2, CYP1A2 (Homo sapiens, UniProt P05177)", "T2 sequence (P05177 1-516)": "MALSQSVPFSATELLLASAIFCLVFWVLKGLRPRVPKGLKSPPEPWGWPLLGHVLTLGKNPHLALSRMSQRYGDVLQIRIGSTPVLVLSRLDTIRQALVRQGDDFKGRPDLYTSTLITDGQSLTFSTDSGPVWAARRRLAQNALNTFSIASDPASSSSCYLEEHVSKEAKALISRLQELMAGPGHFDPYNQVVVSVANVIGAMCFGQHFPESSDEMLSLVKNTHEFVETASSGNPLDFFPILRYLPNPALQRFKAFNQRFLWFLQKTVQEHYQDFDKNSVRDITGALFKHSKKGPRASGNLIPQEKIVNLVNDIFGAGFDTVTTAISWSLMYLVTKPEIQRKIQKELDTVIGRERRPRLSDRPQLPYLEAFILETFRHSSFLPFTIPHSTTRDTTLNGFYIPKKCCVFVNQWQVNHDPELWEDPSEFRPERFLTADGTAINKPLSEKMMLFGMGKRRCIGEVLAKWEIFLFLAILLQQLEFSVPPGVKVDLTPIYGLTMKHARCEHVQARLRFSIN", "assay": "CYP450 inhibition panel: CYP1A2", "format": "in vitro ADME", "conditions": "10 μM; data not shown"}, "CYP2B6": {"biological_target": "T3, CYP2B6 (Homo sapiens, UniProt P20813)", "T3 sequence (P20813 1-491)": "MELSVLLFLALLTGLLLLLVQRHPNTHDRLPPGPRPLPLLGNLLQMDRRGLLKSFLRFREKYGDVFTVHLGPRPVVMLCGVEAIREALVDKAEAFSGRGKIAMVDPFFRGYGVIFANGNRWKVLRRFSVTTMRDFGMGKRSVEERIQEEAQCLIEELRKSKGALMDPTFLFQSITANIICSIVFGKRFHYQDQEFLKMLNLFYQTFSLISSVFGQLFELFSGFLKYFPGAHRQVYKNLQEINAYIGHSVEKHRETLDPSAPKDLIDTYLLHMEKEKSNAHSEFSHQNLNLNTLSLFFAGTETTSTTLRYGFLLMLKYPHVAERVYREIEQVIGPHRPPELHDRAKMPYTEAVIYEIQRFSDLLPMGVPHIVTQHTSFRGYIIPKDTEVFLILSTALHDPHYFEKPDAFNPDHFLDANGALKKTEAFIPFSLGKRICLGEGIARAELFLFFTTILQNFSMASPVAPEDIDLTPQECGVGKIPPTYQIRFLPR", "assay": "CYP450 inhibition panel: CYP2B6", "format": "in vitro ADME", "conditions": "10 μM; data not shown"}, "CYP2C8": {"biological_target": "T4, CYP2C8 (Homo sapiens, UniProt P10632)", "T4 sequence (P10632 1-490)": "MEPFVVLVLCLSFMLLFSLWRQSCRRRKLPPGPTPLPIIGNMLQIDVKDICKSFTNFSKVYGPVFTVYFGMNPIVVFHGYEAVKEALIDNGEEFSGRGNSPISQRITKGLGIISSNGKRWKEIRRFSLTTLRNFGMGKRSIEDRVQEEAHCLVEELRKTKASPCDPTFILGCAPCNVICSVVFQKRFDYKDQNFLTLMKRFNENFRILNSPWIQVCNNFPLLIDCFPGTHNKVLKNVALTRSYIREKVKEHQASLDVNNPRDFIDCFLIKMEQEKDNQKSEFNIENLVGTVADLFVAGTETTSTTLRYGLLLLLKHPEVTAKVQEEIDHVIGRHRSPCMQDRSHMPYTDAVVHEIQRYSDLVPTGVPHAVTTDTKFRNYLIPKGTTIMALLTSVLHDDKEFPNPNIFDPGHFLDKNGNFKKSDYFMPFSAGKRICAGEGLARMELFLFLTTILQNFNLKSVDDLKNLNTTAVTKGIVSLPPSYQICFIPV", "assay": "CYP450 inhibition panel: CYP2C8", "format": "in vitro ADME", "conditions": "10 μM; data not shown"}, "CYP2C9": {"biological_target": "CYP2C9 (Homo sapiens, UniProt P11712)", "sequence (P11712 whole entry)": "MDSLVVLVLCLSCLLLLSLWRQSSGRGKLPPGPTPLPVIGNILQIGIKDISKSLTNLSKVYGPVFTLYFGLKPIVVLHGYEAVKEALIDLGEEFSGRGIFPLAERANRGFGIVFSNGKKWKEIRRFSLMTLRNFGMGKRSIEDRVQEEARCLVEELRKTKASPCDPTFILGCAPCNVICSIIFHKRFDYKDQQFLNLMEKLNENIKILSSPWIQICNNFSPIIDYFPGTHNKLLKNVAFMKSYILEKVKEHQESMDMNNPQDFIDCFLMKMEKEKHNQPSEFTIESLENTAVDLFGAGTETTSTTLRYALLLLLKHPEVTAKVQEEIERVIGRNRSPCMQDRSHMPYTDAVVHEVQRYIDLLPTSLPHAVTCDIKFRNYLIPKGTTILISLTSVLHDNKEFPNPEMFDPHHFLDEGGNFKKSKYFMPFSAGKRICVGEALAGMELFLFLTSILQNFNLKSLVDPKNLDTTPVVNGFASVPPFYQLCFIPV", "assay": "CYP450 inhibition panel: CYP2C9", "format": "in vitro ADME", "conditions": "10 μM; data not shown"}, "CYP2C19": {"biological_target": "CYP2C19 (Homo sapiens, UniProt P33261)", "sequence (P33261 whole entry)": "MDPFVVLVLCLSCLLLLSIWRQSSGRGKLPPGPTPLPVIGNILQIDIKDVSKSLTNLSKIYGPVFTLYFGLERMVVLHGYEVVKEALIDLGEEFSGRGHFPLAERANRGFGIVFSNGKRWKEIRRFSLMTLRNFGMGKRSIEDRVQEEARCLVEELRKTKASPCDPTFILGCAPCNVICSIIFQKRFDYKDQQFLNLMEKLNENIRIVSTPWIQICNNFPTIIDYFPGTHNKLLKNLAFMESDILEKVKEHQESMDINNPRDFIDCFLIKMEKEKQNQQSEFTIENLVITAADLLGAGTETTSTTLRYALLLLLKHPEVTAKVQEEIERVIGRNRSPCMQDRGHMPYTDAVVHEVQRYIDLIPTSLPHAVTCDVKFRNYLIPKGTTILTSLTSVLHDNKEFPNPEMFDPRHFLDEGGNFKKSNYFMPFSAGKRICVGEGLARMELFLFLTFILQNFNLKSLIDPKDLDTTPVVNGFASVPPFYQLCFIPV", "assay": "CYP450 inhibition panel: CYP2C19", "format": "in vitro ADME", "conditions": "10 μM; data not shown"}, "CYP2D6": {"biological_target": "CYP2D6 (Homo sapiens, UniProt P10635)", "sequence (P10635 whole entry)": "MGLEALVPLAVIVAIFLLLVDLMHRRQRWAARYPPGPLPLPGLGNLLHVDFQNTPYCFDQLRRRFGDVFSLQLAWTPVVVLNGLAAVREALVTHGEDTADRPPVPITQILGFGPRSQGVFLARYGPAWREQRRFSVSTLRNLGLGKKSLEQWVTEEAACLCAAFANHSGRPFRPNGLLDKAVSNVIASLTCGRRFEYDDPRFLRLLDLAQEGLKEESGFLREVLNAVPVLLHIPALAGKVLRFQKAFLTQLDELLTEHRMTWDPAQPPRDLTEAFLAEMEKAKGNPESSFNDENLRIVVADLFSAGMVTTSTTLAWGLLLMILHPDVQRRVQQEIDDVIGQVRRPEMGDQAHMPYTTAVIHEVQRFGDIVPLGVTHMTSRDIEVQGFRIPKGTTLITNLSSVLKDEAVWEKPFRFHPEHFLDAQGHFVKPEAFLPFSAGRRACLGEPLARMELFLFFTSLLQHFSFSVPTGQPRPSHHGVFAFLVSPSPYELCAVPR", "assay": "CYP450 inhibition panel: CYP2D6", "format": "in vitro ADME", "conditions": "10 μM; data not shown"}, "CYP3A4/5": {"system": "CYP3A4/5", "assay": "CYP450 inhibition panel: CYP3A4/5", "format": "in vitro ADME, human", "conditions": "10 μM; data not shown"}, "hERG K+ channel": {"biological_target": "hERG K+ channel (Homo sapiens, UniProt Q12809)", "sequence (Q12809 whole entry)": "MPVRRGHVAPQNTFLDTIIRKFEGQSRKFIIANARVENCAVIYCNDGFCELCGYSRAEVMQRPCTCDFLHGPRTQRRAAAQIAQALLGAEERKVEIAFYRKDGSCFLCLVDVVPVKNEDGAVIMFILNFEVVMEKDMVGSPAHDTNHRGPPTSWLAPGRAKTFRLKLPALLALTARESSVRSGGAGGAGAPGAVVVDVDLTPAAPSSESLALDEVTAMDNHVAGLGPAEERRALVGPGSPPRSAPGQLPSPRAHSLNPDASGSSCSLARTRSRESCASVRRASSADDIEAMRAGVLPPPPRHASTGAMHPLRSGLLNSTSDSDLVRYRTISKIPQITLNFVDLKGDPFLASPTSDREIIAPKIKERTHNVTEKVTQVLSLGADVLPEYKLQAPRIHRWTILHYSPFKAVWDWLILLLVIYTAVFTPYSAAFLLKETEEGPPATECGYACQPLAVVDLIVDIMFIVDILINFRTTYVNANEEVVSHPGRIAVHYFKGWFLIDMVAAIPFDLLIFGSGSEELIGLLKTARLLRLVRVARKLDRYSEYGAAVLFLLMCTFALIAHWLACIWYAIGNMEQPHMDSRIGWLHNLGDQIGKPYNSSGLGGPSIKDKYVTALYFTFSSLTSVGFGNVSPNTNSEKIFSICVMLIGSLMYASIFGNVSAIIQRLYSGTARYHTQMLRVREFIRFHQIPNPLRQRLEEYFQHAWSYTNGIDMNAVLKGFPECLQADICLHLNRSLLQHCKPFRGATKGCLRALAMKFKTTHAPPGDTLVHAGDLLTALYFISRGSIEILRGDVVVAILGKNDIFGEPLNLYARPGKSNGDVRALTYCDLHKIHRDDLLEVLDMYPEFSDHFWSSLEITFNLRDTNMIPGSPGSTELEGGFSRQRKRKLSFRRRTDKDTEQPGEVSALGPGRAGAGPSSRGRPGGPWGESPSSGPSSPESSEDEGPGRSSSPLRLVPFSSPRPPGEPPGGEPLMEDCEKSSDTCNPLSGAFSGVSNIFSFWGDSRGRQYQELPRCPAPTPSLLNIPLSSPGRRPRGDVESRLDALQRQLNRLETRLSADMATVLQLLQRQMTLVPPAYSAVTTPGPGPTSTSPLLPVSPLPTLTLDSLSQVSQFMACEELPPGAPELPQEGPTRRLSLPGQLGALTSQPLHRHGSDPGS", "assay": "hERG K+ channel activity", "format": "cell-based", "conditions": "30 μM; Patch Express; data not shown"}, "[6]": {"system": "6 Hz (32 mA) psychomotor seizure", "assay": "6 Hz", "format": "in vivo, mice", "conditions": "Mus musculus, ip, read-out: 6 Hz ED50"}, "[7]": {"system": "maximal electroshock seizure", "assay": "Maximal electroshock seizure", "format": "in vivo, mice", "conditions": "Mus musculus, ip, read-out: MES ED50"}, "[8]": {"assay": "Rotorod test for neurological impairment, mice ip", "conditions": "mouse, in vivo"}, "[9]": {"system": "subcutaneous Metrazol (scMet) seizure", "conditions": "cited from earlier work"}, "behavioral toxicity": {"system": "behavioral toxicity", "conditions": "rat, po; cited from earlier work"}, "[10]": {"system": "voltage-gated sodium channels (Nav1.1, Nav1.2, Nav1.3, Nav1.6) in rat embryonic cortical neurons", "assay": "Whole-cell patch-clamp of Na+ currents in rat embryonic cortical neurons", "format": "cell-based", "conditions": "10 μM, vs 0.1% DMSO control"}, "[11]": {"system": "6 Hz (32 mA) psychomotor seizure", "conditions": "mice, ip, time (h) in brackets; cited from earlier work"}}, "note": "Read-outs that look alike come from different tables or passages of the source."}
{"smiles": "O=C1NC(=O)C(c2ccccc2)(c2ccccc2)N1", "note": "[phenytoin]", "values": [{"measurement": "MES ED50", "setting": "[1]; 95% CI in parentheses", "result": "28 (21–35) mg/kg"}, {"measurement": "MES ED50", "setting": "[2]", "result": "2.4 (1.4–3.7) mg/kg"}]}
{"smiles": "C[C@H](NCc1ccc(OCc2cccc(F)c2)cc1)C(N)=O", "note": "[(S)-2, (S)-2-(4′-((3″-fluoro)benzyloxy)benzyl)aminopropionamide]", "values": [{"measurement": "MES ED50", "setting": "[3]", "result": "4.1 (3.0–5.5) mg/kg"}, {"measurement": "MES ED50", "setting": "[1]; 95% CI in parentheses", "result": "12 (10–14) mg/kg"}, {"measurement": "IC50", "setting": "[4]", "result": 13, "unit": "µM"}]}
{"smiles": "COC[C@@H](NC(C)=O)C(=O)NCc1ccc(Oc2cccc(OC(F)(F)F)c2)cc1", "note": "[(R)-9, (R)-N-4′-((3″-Trifluoromethoxy)phenoxy)benzyl2-N-Acetamido-3-methoxypropionamide]", "values": [{"measurement": "Steady-state activation properties vs control", "setting": "[5]", "result": "no different"}, {"measurement": "Direct inhibition of CYP1A2", "setting": "CYP1A2", "result": "little or no direct inhibition"}, {"measurement": "Direct inhibition of CYP2B6", "setting": "CYP2B6", "result": "little or no direct inhibition"}, {"measurement": "Direct inhibition of CYP2C8", "setting": "CYP2C8", "result": "little or no direct inhibition"}, {"measurement": "Direct inhibition of CYP2C9", "setting": "CYP2C9", "result": "little or no direct inhibition"}, {"measurement": "Direct inhibition of CYP2C19", "setting": "CYP2C19", "result": "little or no direct inhibition"}, {"measurement": "Direct inhibition of CYP2D6", "setting": "CYP2D6", "result": "little or no direct inhibition"}, {"measurement": "Direct inhibition of CYP3A4/5", "setting": "CYP3A4/5", "result": "little or no direct inhibition"}, {"measurement": "Effect on hERG K+ channel activity", "setting": "hERG K+ channel", "result": "did not affect"}]}
{"smiles": "COC[C@@H](NC(C)=O)C(=O)NCc1ccc(Oc2cccc(OC)c2)cc1", "note": "[(R)-8, (R)-N-4′-((3″-Methoxy)phenoxy)benzyl 2-N-Acetamido-3-methoxypropionamide]", "values": [{"measurement": "ED50", "setting": "[6]", "result": "30 to 100", "unit": "mg/kg"}]}
{"smiles": "COC[C@@H](NC(C)=O)C(=O)NCc1ccc(Oc2ccccc2)cc1", "note": "[(R)-3, (R)-N-4′-Phenoxybenzyl 2-N-Acetamido-3-methoxypropionamide]", "values": [{"measurement": "ED50", "setting": "[7]", "result": "10 to 30", "unit": "mg/kg"}, {"measurement": "ED50", "setting": "[6]", "result": "10 to 30", "unit": "mg/kg"}, {"measurement": "TD50 at 0.5 h", "setting": "[8]", "result": "30 to 100", "unit": "mg/kg"}]}
{"smiles": "COC[C@@H](NC(C)=O)C(=O)NCc1ccc(Oc2cccc(C(F)(F)F)c2)cc1", "note": "[(R)-7, (R)-N-4′-((3″-Trifluoromethyl)phenoxy)benzyl2-N-Acetamido-3-methoxypropionamide]", "values": [{"measurement": "ED50", "setting": "[6]", "result": "10 to 100", "unit": "mg/kg"}]}
{"smiles": "COC[C@@H](NC(C)=O)C(=O)NCc1ccccc1", "note": "[(R)-1, (R)-N-benzyl 2-N-acetamido-3-methoxypropionamide]", "values": [{"measurement": "scMet seizure model: activity", "setting": "[9]", "result": "no activity"}, {"measurement": "IC50", "setting": "[4]", "result": 85, "unit": "µM"}, {"measurement": "Tox TD50 (behavioral toxicity)", "setting": "behavioral toxicity", "result": ">500 [0.5] mg/kg"}]}
{"smiles": "COC[C@@H](NC(C)=O)C(=O)NCc1ccc(Oc2cccc(Cl)c2)cc1", "note": "[(R)-5, (R)-N-4′-((3″-Chloro)phenoxy)benzyl 2-N-Acetamido-3-methoxypropionamide]", "values": [{"measurement": "Effect on transition of VGSCs to the slow-inactivated state", "setting": "[10]", "result": "facilitated the transition of a majority of sodium channels into the slow-inactivated state"}]}
{"smiles": "COC[C@@H](NC(C)=O)C(=O)NCc1ccc(Oc2cccc(F)c2)cc1", "note": "[(R)-4]", "values": [{"measurement": "6 Hz ED50", "setting": "[11]", "result": "~10 [0.25–0.5] mg/kg"}, {"measurement": "MES ED50", "setting": "[1]", "result": "<10 [0.25–4.0] mg/kg"}, {"measurement": "Tox TD50 (behavioral toxicity)", "setting": "behavioral toxicity", "result": ">10 [0.25–4.0] mg/kg"}]}
